In the NIST ThermoML archive (doi:10.1016/j.jct.2014.01.030):
± gives the expanded uncertainty stated by the source.

Assay: xn = mol fraction of the nth substance listed
Settings: 101 kPa, Liquid; for speed of sound: Sing-around technique in a fixed-path interferometer; for mass density: Vibrating tube method

CCn1cc[n+](C)c1.COS(=O)(=O)[O-] [1-ethyl-3-methylimidazolium methylsulfate] + CCC(C)O
Settings | mass density, 288.15 K [kg/m3] | mass density, 298.15 K [kg/m3] | mass density, 308.15 K [kg/m3] | speed of sound, 288.15 K [m/s] | speed of sound, 298.15 K [m/s] | speed of sound, 308.15 K [m/s]
x2 = 0 | 1287.57 ± 0.47 | 1280.81 ± 0.47 | 1273.97 ± 0.46 | 1781 ± 2 | 1756 ± 2 | 1732 ± 2
x2 = 0.054 | 1274.82 ± 0.45 | 1267.9 ± 0.44 | 1261.04 ± 0.43 | 1762 ± 2 | 1738 ± 2 | 1714 ± 2
x2 = 0.106 | 1261.26 ± 0.42 | 1254.37 ± 0.41 | 1247.52 ± 0.41 | 1743 ± 2 | 1718 ± 2 | 1693 ± 2
x2 = 0.204 | 1233.86 ± 0.37 | 1226.94 ± 0.36 | 1220.05 ± 0.36 | 1698 ± 2 | 1673 ± 2 | 1649 ± 2
x2 = 0.306 | 1201.1 ± 0.32 | 1194.21 ± 0.32 | 1187.37 ± 0.31 | 1644 ± 2 | 1619 ± 2 | 1594 ± 2
x2 = 0.405 | 1165.21 ± 0.28 | 1158.22 ± 0.27 | 1151.25 ± 0.27 | 1587 ± 2 | 1562 ± 2 | 1536 ± 2
x2 = 0.507 | 1122.93 ± 0.24 | 1115.87 ± 0.24 | 1108.83 ± 0.23 | 1527 ± 2 | 1501 ± 2 | 1475 ± 2
x2 = 0.608 | 1075.89 ± 0.21 | 1068.69 ± 0.21 | 1061.49 ± 0.21 | 1467 ± 2 | 1440 ± 2 | 1414 ± 2
x2 = 0.713 | 1019.51 ± 0.19 | 1012.15 ± 0.19 | 1004.76 ± 0.19 | 1406 ± 2 | 1378 ± 2 | 1350 ± 2
x2 = 0.801 | 964.94 ± 0.2 | 957.44 ± 0.2 | 949.85 ± 0.2 | 1356 ± 2 | 1326 ± 2 | 1297 ± 2
x2 = 0.905 | 890.81 ± 0.21 | 883.1 ± 0.21 | 875.21 ± 0.21 | 1299 ± 2 | 1267 ± 2 | 1235 ± 2
x2 = 0.948 | 856.61 ± 0.23 | 848.81 ± 0.23 | 840.73 ± 0.23 | 1277 ± 2 | 1244 ± 2 | 1210 ± 2

CCn1cc[n+](C)c1.COS(=O)(=O)[O-] [1-ethyl-3-methylimidazolium methylsulfate] + CCCCCO
Settings | mass density, 288.15 K [kg/m3] | mass density, 298.15 K [kg/m3] | mass density, 308.15 K [kg/m3] | speed of sound, 288.15 K [m/s] | speed of sound, 298.15 K [m/s] | speed of sound, 308.15 K [m/s]
x2 = 0 | 1287.57 ± 0.47 | 1280.81 ± 0.47 | 1273.97 ± 0.46 | 1781 ± 2 | 1756 ± 2 | 1732 ± 2
x2 = 0.057 | 1271.79 ± 0.46 | 1264.9 ± 0.45 | 1258.06 ± 0.45 | 1759 ± 2 | 1734 ± 2 | 1710 ± 2
x2 = 0.113 | 1255.1 ± 0.45 | 1248.21 ± 0.44 | 1241.74 ± 0.44 | 1733 ± 2 | 1708 ± 2 | 1684 ± 2
x2 = 0.216 | 1221.14 ± 0.42 | 1214.5 ± 0.41 | 1207.89 ± 0.41 | 1678 ± 2 | 1652 ± 2 | 1628 ± 2
x2 = 0.306 | 1188.62 ± 0.39 | 1181.87 ± 0.39 | 1175.24 ± 0.38 | 1627 ± 2 | 1600 ± 2 | 1576 ± 2
x2 = 0.404 | 1150.41 ± 0.36 | 1143.48 ± 0.36 | 1136.6 ± 0.35 | 1569 ± 2 | 1544 ± 2 | 1519 ± 2
x2 = 0.51 | 1104.6 ± 0.33 | 1097.6 ± 0.32 | 1090.68 ± 0.32 | 1511 ± 2 | 1485 ± 2 | 1459 ± 2
x2 = 0.608 | 1058.29 ± 0.29 | 1051.16 ± 0.29 | 1043.98 ± 0.28 | 1463 ± 2 | 1435 ± 2 | 1408 ± 2
x2 = 0.716 | 1001.72 ± 0.26 | 994.56 ± 0.26 | 987.39 ± 0.26 | 1413 ± 2 | 1385 ± 2 | 1357 ± 2
x2 = 0.801 | 952.72 ± 0.26 | 945.38 ± 0.26 | 938.08 ± 0.26 | 1378 ± 2 | 1349 ± 2 | 1320 ± 2
x2 = 0.9 | 889.67 ± 0.27 | 882.45 ± 0.27 | 875.19 ± 0.27 | 1342 ± 2 | 1311 ± 2 | 1280 ± 2
x2 = 0.956 | 851 ± 0.27 | 843.78 ± 0.28 | 836.48 ± 0.28 | 1325 ± 2 | 1292 ± 2 | 1260 ± 2

CCn1cc[n+](C)c1.COS(=O)(=O)[O-] [1-ethyl-3-methylimidazolium methylsulfate] + CCCO
Settings | mass density, 288.15 K [kg/m3] | mass density, 298.15 K [kg/m3] | mass density, 308.15 K [kg/m3] | speed of sound, 288.15 K [m/s] | speed of sound, 298.15 K [m/s] | speed of sound, 308.15 K [m/s]
x2 = 0 | 1287.57 ± 0.47 | 1280.81 ± 0.47 | 1273.97 ± 0.46 | 1781 ± 2 | 1756 ± 2 | 1732 ± 2
x2 = 0.055 | 1277.08 ± 0.43 | 1270.16 ± 0.43 | 1263.29 ± 0.42 | 1765 ± 2 | 1741 ± 2 | 1717 ± 2
x2 = 0.104 | 1266.71 ± 0.4 | 1259.77 ± 0.39 | 1252.89 ± 0.39 | 1750 ± 2 | 1725 ± 2 | 1701 ± 2
x2 = 0.21 | 1241.65 ± 0.33 | 1234.68 ± 0.32 | 1227.75 ± 0.32 | 1712 ± 2 | 1687 ± 2 | 1662 ± 2
x2 = 0.307 | 1215.18 ± 0.27 | 1208.16 ± 0.27 | 1201.19 ± 0.27 | 1671 ± 2 | 1645 ± 2 | 1620 ± 2
x2 = 0.414 | 1181.08 ± 0.23 | 1174.01 ± 0.22 | 1166.97 ± 0.22 | 1617 ± 2 | 1592 ± 2 | 1567 ± 2
x2 = 0.519 | 1141.11 ± 0.19 | 1133.94 ± 0.19 | 1126.8 ± 0.19 | 1559 ± 2 | 1533 ± 2 | 1507 ± 2
x2 = 0.62 | 1095.52 ± 0.18 | 1088.26 ± 0.17 | 1081.02 ± 0.17 | 1498 ± 2 | 1471 ± 2 | 1445 ± 2
x2 = 0.718 | 1042.21 ± 0.17 | 1034.8 ± 0.17 | 1027.38 ± 0.17 | 1435 ± 2 | 1407 ± 2 | 1380 ± 2
x2 = 0.81 | 981.73 ± 0.18 | 974.16 ± 0.19 | 966.57 ± 0.19 | 1373 ± 2 | 1344 ± 2 | 1315 ± 2
x2 = 0.907 | 903.61 ± 0.21 | 895.88 ± 0.21 | 888.1 ± 0.21 | 1307 ± 2 | 1276 ± 2 | 1245 ± 2
x2 = 0.954 | 858.4 ± 0.24 | 850.58 ± 0.24 | 842.66 ± 0.25 | 1276 ± 2 | 1243 ± 2 | 1211 ± 2

CCn1cc[n+](C)c1.COS(=O)(=O)[O-] [1-ethyl-3-methylimidazolium methylsulfate] + CO
Settings | mass density, 288.15 K [kg/m3] | mass density, 298.15 K [kg/m3] | mass density, 308.15 K [kg/m3] | speed of sound, 288.15 K [m/s] | speed of sound, 298.15 K [m/s] | speed of sound, 308.15 K [m/s]
x2 = 0 | 1287.57 ± 0.47 | 1280.81 ± 0.47 | 1273.97 ± 0.46 | 1781 ± 2 | 1756 ± 2 | 1732 ± 2
x2 = 0.0515 | 1282.18 ± 0.44 | 1275.24 ± 0.43 | 1268.37 ± 0.43 | 1772 ± 2 | 1748 ± 2 | 1724 ± 2
x2 = 0.1025 | 1276.36 ± 0.4 | 1269.42 ± 0.4 | 1262.52 ± 0.39 | 1763 ± 2 | 1739 ± 2 | 1715 ± 2
x2 = 0.1919 | 1265.13 ± 0.35 | 1258.14 ± 0.35 | 1251.2 ± 0.34 | 1747 ± 2 | 1722 ± 2 | 1698 ± 2
x2 = 0.3013 | 1247.5 ± 0.29 | 1240.45 ± 0.29 | 1233.43 ± 0.28 | 1720 ± 2 | 1695 ± 2 | 1670 ± 2
x2 = 0.4032 | 1227.98 ± 0.25 | 1220.84 ± 0.24 | 1213.74 ± 0.24 | 1690 ± 2 | 1665 ± 2 | 1640 ± 2
x2 = 0.5038 | 1203.27 ± 0.21 | 1196.01 ± 0.21 | 1188.8 ± 0.21 | 1653 ± 2 | 1628 ± 2 | 1602 ± 2
x2 = 0.604 | 1170.7 ± 0.19 | 1163.31 ± 0.19 | 1155.94 ± 0.19 | 1605 ± 2 | 1578 ± 2 | 1553 ± 2
x2 = 0.7023 | 1127.32 ± 0.18 | 1119.71 ± 0.18 | 1112.12 ± 0.18 | 1541 ± 2 | 1514 ± 2 | 1487 ± 2
x2 = 0.8003 | 1065.67 ± 0.2 | 1057.76 ± 0.2 | 1049.86 ± 0.21 | 1452 ± 2 | 1424 ± 2 | 1397 ± 2
x2 = 0.9049 | 962.26 ± 0.25 | 953.82 ± 0.25 | 945.37 ± 0.25 | 1316 ± 2 | 1286 ± 2 | 1258 ± 2
x2 = 0.9515 | 893.83 ± 0.37 | 885.04 ± 0.37 | 876.21 ± 0.38 | 1237 ± 2 | 1206 ± 2 | 1176 ± 2
